Results from US4822774A, “Physiologically active peptide” (Eisai Co., Ltd., priority 1986, dated 1989).

Test system: Muscle of Bronchus Removed from Guinea Pig
Details: guinea pig trachea, 6.5×10^-6 M histamine; samples at 10^-5 M; area value of VIP--NH2 taken as 100 %
Source text: A. Determination on Relaxation of Muscle of Bronchus Removed from Guinea Pig
The juglar vein of a male guinea pig weighing 300 g or more is cut, causing the guinea pig to be bled to death. The guinea pig undergoes thoracotomy. Immediately after the thoracotomy, 3 cm of the trachea is taken out. The trachea is immediately put in a Krebs solution. It is then cut into seven equal rings, and the cartilages are connected to one another with a cotton yarn to form a chain. Subsequently, the smooth muscle parts and cartilages opposite them are cut, so that the smooth muscle parts can be connected to one another. The preparation thus prepared is placed in an isothermic glass cell having an internal capacity of about 7 ml and suspended from above. The lower part of the preparation is fixed, while the upper part is connected to an isometric transducer, to which 0.5 g of a load has been applied, in order to determine the relaxation reaction. Sufficient amounts of 95 % oxygen and 5 % carbon dioxide gas are blown into the preparation. Further, a Krebs solution of 37° C. containing 6.5×10^-6 M histamine is dropped on the preparation from above at a flow rate of 3.3 ml/min. The relaxation reaction takes place to an extent proportional to the amount of a sample added to the dropped solution. By utilizing this relationship, the relaxation activity against bronchial smooth muscle with respect to the substance of the present invention is compared with that of VIP--NH2. VIP--NH2 is used at a concentration of 10^-5 M and dropped in amounts of 40 μl and 80 μl. The substance of the present invention is also used at a concentration of 10^- 5 M and dropped in amounts of 10 μl and 20 μl. The value of the area (height×time) in relaxation of each case is determined. The specific activities are obtained by taking the area value of VIP--NH2 as 100 % and determining the relative ratio of the area value of each use. Thus, the relaxation reactions are compared by the four-point assay method, with respect to the above-mentioned determination method, reference may be made to the following articles (e) and (f): […]

SMILES | A: specific activity (%) obtained by method A (relaxation of bronchial smooth muscle, area value relative to VIP-NH2)
CC[C@H](C)[C@H](NC(=O)[C@H](CO)NC(=O)[C@H](CC(N)=O)NC(=O)[C@H](CC(C)C)NC(=O)[C@H](Cc1ccc(O)cc1)NC(=O)[C@H](CCCCN)NC(=O)[C@H](CCCCN)NC(=O)[C@@H](NC(=O)[C@H](C)NC(=O)[C@H](CCSC)NC(=O)[C@H](CCC(N)=O)NC(=O)[C@H](CCCCN)NC(=O)[C@H](CCCNC(=N)N)NC(=O)[C@H](CC(C)C)NC(=O)[C@H](CCCNC(=N)N)NC(=O)[C@@H](NC(=O)[C@H](Cc1ccc(O)cc1)NC(=O)[C@H](CC(N)=O)NC(=O)[C@H](CC(=O)O)NC(=O)[C@@H](NC(=O)[C@H](Cc1ccccc1)NC(=O)[C@@H](NC(=O)[C@H](C)NC(=O)[C@H](CC(=O)O)NC(=O)[C@H](CO)NC(=O)[C@@H](N)Cc1c[nH]cn1)C(C)C)[C@@H](C)O)[C@@H](C)O)C(C)C)C(=O)N[C@@H](CC(C)C)C(=O)N[C@@H](CC(N)=O)C(=O)NCC(=O)N[C@@H](CCCCN)C(=O)O [X=Met Y=Lys--OH] | 300%
CC[C@H](C)[C@H](NC(=O)[C@H](CO)NC(=O)[C@H](CC(N)=O)NC(=O)[C@H](CC(C)C)NC(=O)[C@H](Cc1ccc(O)cc1)NC(=O)[C@H](CCCCN)NC(=O)[C@H](CCCCN)NC(=O)[C@@H](NC(=O)[C@H](C)NC(=O)[C@H](CCSC)NC(=O)[C@H](CCC(N)=O)NC(=O)[C@H](CCCCN)NC(=O)[C@H](CCCNC(=N)N)NC(=O)[C@H](CC(C)C)NC(=O)[C@H](CCCNC(=N)N)NC(=O)[C@@H](NC(=O)[C@H](Cc1ccc(O)cc1)NC(=O)[C@H](CC(N)=O)NC(=O)[C@H](CC(=O)O)NC(=O)[C@@H](NC(=O)[C@H](Cc1ccccc1)NC(=O)[C@@H](NC(=O)[C@H](C)NC(=O)[C@H](CC(=O)O)NC(=O)[C@H](CO)NC(=O)[C@@H](N)Cc1c[nH]cn1)C(C)C)[C@@H](C)O)[C@@H](C)O)C(C)C)C(=O)N[C@@H](CC(C)C)C(=O)N[C@@H](CC(N)=O)C(=O)O [VIP - OH] | 60%
CC[C@H](C)[C@H](NC(=O)[C@H](CO)NC(=O)[C@H](CC(N)=O)NC(=O)[C@H](CC(C)C)NC(=O)[C@H](Cc1ccc(O)cc1)NC(=O)[C@H](CCCCN)NC(=O)[C@H](CCCCN)NC(=O)[C@@H](NC(=O)[C@H](C)NC(=O)[C@H](CCSC)NC(=O)[C@H](CCC(N)=O)NC(=O)[C@H](CCCCN)NC(=O)[C@H](CCCNC(=N)N)NC(=O)[C@H](CC(C)C)NC(=O)[C@H](CCCNC(=N)N)NC(=O)[C@@H](NC(=O)[C@H](Cc1ccc(O)cc1)NC(=O)[C@H](CC(N)=O)NC(=O)[C@H](CC(=O)O)NC(=O)[C@@H](NC(=O)[C@H](Cc1ccccc1)NC(=O)[C@@H](NC(=O)[C@H](C)NC(=O)[C@H](CC(=O)O)NC(=O)[C@H](CO)NC(=O)[C@@H](N)Cc1c[nH]cn1)C(C)C)[C@@H](C)O)[C@@H](C)O)C(C)C)C(=O)N[C@@H](CC(C)C)C(=O)N[C@@H](CC(N)=O)C(N)=O [VIP - NH2] | 100%
